# Laboratory results published in ChEMBL document CHEMBL3352308, “Identification of constrained peptidomimetic chemotypes as HIV protease inhibitors” (Eur J Med Chem, 2014).
# What was measured:
# [1] = molecular target: Protease (Human immunodeficiency virus 1) (UniProt Q9YQ12); test: Inhibition of HIV-1 protease using DABCYL-Abu-Ser-Gln-Asn-Tyr-Pro-Ile-Val-Gln-EDANS as substrate preincubated at 10 uM for 15 mins before substrate addition measured over 15 mins by fluorometric assay
# [2] = molecular target: Protease (Human immunodeficiency virus 1) (UniProt Q9YQ12); test: Inhibition of HIV-1 protease using DABCYL-Abu-Ser-Gln-Asn-Tyr-Pro-Ile-Val-Gln-EDANS as substrate preincubated at 1 uM for 15 mins before substrate addition measured over 15 mins by fluorometric assay
# Protease = Protease (Human immunodeficiency virus 1, UniProt Q9YQ12); test: Inhibition of HIV-1 protease using DABCYL-Abu-Ser-Gln-Asn-Tyr-Pro-Ile-Val-Gln-EDANS as substrate preincubated for 15 mins before substrate addition measured over 15 mins by fluorometric assay
# Sequence of Protease (Q9YQ12 whole entry): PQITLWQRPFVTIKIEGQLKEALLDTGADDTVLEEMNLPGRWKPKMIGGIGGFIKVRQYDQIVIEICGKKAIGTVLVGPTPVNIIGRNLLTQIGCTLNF
# Sequence of Protease (Human immunodeficiency virus 1) (Q9YQ12 as listed by the source): as the sequence (Q9YQ12 whole entry) above
Structure (SMILES),inhibition [1],inhibition [2],IC50 (Protease)
CC(C)CC(=O)N[C@H](C(=O)N[C@H](C(=O)N[C@@H](CC(C)C)[C@@H](O)CC(=O)N[C@@H](C)C(=O)N[C@@H](CC(C)C)[C@@H](O)CC(=O)O)C(C)C)C(C)C,74%,56%,–
O=C([C@@H]1O[C@@]2(c3ccccc3)CN(C(c3ccccc3)c3ccccc3)C(=O)[C@@H]1O2)N1CCN(CCO)CC1,71%,–,–
CC(C)C[C@@H](C(=O)O)N1C[C@@H]2O[C@@H](C(=O)N3CCCCC3)[C@@H](O2)C1=O,63%,–,–
CC(C)C[C@@H](CO)NC(=O)[C@@H]1O[C@@H]2O[C@H]1C(=O)N(Cc1ccccc1)[C@@H]2Cc1ccccc1,80%,–,–
C[C@@H](CO)NC(=O)[C@@H]1O[C@@H]2O[C@H]1C(=O)N(Cc1ccccc1)[C@@H]2Cc1ccccc1,81%,–,–
O=C(NC1CCCCC1)[C@@H]1O[C@H]2CN(Cc3ccccc3)C(=O)[C@@H]1O2,34%,–,–
COC(=O)[C@H](CC(C)C)N1C[C@@H]2O[C@@H](C(=O)N3CCN(CCc4ccccc4)CC3)[C@@H](O2)C1=O,70%,–,–
CCCC[C@@H](C(=O)OC)N1C[C@H]2O[C@H](C(=O)N3CCCCC3)[C@H](O2)C1=O,46%,–,–
CCCCNC(=O)[C@@H]1O[C@@H]2O[C@H]1C(=O)N(Cc1ccccc1)[C@H]2Cc1ccccc1,67%,33%,7500 nM
O=C1[C@@H]2O[C@H](CN1Cc1ccccc1)O[C@H]2C(=O)N1CCC[C@@H]1CO,77%,–,–
O=C([C@@H]1O[C@@H]2O[C@H]1C(=O)N(Cc1ccccc1)[C@H]2Cc1ccccc1)N1CCN(CCO)CC1,75%,45%,5600 nM
CC(C)CCNC(=O)[C@@H]1O[C@@H]2O[C@H]1C(=O)N(Cc1ccccc1)[C@H]2Cc1ccccc1,75%,–,–
COC(=O)[C@H](CC(C)C)N1C[C@@H]2O[C@@H](C(=O)N3CCN(Cc4ccccc4)CC3)[C@@H](O2)C1=O,36%,–,–
COC(=O)[C@H](CC(C)C)N1C[C@@H]2O[C@@H](C(=O)N[C@H](CO)CC(C)C)[C@@H](O2)C1=O,57%,–,–
C#CCNC(=O)[C@@H]1O[C@@H]2O[C@H]1C(=O)N(Cc1ccccc1)[C@H]2Cc1ccccc1,78%,60%,700 nM
CCCNC(=O)[C@@H]1O[C@@H]2O[C@H]1C(=O)N(Cc1ccccc1)[C@H]2Cc1ccccc1,56%,–,–
O=C([C@@H]1O[C@@H]2O[C@H]1C(=O)N(Cc1ccccc1)[C@@H]2Cc1ccccc1)N1CCC[C@H]1CO,58%,–,–

Structure (SMILES),inhibition [1],inhibition [2],IC50 (Protease)
O=C([C@H]1O[C@@H]2CN(Cc3ccccc3)C(=O)[C@H]1O2)N1CCN(CCO)CC1,47%,–,–
O=C([C@@H]1O[C@H]2CN(Cc3ccccc3)C(=O)[C@@H]1O2)N1CCCCC1,21%,–,–
O=C(NCCc1ccccc1)[C@@H]1O[C@H]2CN(Cc3ccccc3)C(=O)[C@@H]1O2,31%,–,–
CCCCNC(=O)[C@@H]1O[C@@]2(c3ccccc3)CN(C(c3ccccc3)c3ccccc3)C(=O)[C@@H]1O2,66%,–,–
O=C([C@@H]1O[C@@H]2O[C@H]1C(=O)N(Cc1ccccc1)[C@@H]2Cc1ccccc1)N1CCCCC1,59%,–,–
CC(C)C[C@@H](CO)NC(=O)[C@@H]1O[C@H]2CN(Cc3ccccc3)C(=O)[C@@H]1O2,82%,55%,2600 nM
O=C([C@@H]1O[C@@H]2O[C@H]1C(=O)N(Cc1ccccc1)[C@@H]2Cc1ccccc1)N1CCOCC1,17%,–,–
CNCCNC(=O)[C@@H]1O[C@@H]2O[C@H]1C(=O)N(Cc1ccccc1)[C@H]2Cc1ccccc1,49%,–,–
CCCC[C@@H](C(=O)OC)N1C[C@@H]2O[C@@H](C(=O)N3CCCCC3)[C@@H](O2)C1=O,43%,–,–
O=C(NCCCO)[C@@H]1O[C@H]2CN(Cc3ccccc3)C(=O)[C@@H]1O2,47%,–,–
CC(C)C[C@H](C(=O)O)N1C[C@@H]2O[C@@H](C(=O)N3CCCCC3)[C@@H](O2)C1=O,43%,–,–
C[C@@H](CO)NC(=O)[C@@H]1O[C@H]2CN(Cc3ccccc3)C(=O)[C@@H]1O2,90%,54%,1500 nM
O=C(NC1CCCCC1)[C@@H]1O[C@@H]2O[C@H]1C(=O)N(Cc1ccccc1)[C@H]2Cc1ccccc1,68%,69%,1900 nM
CCOC(=O)N1CCN(C(=O)[C@@H]2O[C@H]3CN(Cc4ccccc4)C(=O)[C@@H]2O3)CC1,57%,–,–
CC[C@H](C)[C@@H](C(=O)OC)N1C[C@@H]2O[C@@H](C(=O)N3CCCCC3)[C@@H](O2)C1=O,30%,–,–
CNCCNC(=O)[C@@H]1O[C@@]2(c3ccccc3)CN(C(c3ccccc3)c3ccccc3)C(=O)[C@@H]1O2,33%,–,–
